Measurements: PMC6272348, “Four New Pentasaccharide Resin Glycosides from Ipomoea cairica with Strong α-Glucosidase Inhibitory Activity” (Molecules, 2015)

Target: α-glucosidase
Test: α-glucosidase inhibition assay (PNPG substrate)
Format: biochemical
Details: pH 6.8, 37 °C, 10 min, 0.01 M PNPG substrate, 1 U/mL enzyme; means ± SD of three independent replicates; read-out: α-Glucosidase Inhibition Contstant (IC50)
Experimental: The a-glucosidase inhibition assay was performed according to a slightly modified method of Pierre et al.. α-Glucosidase was purchased from Sigma (San Francisco, CA, USA, No. M0035-15). The inhibition was measured spectrophotometrically at pH 6.8 and at 37 °C for 10 min, using 0.01 M p-nitrophenyl a-D-glucopyranoside (PNPG) from Sigma (No. M0103) as a substrate and 1 U/mL of enzyme, in 0.067 M KH2PO4-Na2HPO4 buffer. […] The increment in absorption at 410 nm due to the hydrolysis of PNPG by α-glucosidase was monitored continuously with an automatic multi-functional microplate reader.

IC50 [µM] | SMILES
21.4 ± 2.9 | CCCCCC1CCCCCCCCCC(=O)OC2C(OC(C)C(OC3OC(C)C(OC4OC(C)C(OC(=O)C(C)CC)C(OC(=O)C=Cc5ccccc5)C4O)C(OC4OC(C)C(O)C(O)C4O)C3OC(=O)C(C)CC)C2O)OC2C(O1)OC(CO)C(O)C2O [Compound 1, (S)-jalapinolic acid 11-O-α-L-rhamnopyranosyl-(1→3)-O-[3-O-trans-cinnamoyl-4-O-(S)-2-methyl-butyryl-α-L-rhamnopyranosyl-(1→4)]-O-[2-O-(S)-2-methylbutyryl]-α-L-rhamnopyranosyl-(1→4)-O-α-L-rhamnopyranosyl-(1→2)-O-β-D-glucopyranoside, intramolecular 1,2''-ester]
28.9 ± 1.4 | CCCCCCCCCC(=O)OC1C(OC2C(C)OC3OC4C(OC(CCCCC)CCCCCCCCCC(=O)OC3C2O)OC(CO)C(O)C4O)OC(C)C(OC2OC(C)C(OC(=O)C(C)CC)C(OC(=O)C=Cc3ccccc3)C2O)C1OC1OC(C)C(O)C(O)C1O (stereo not shown) [Compound 4, Cairicoside IV]
26.2 ± 4.6 | CCCCCC1CCCCCCCCCC(=O)OC2C(OC(C)C(OC3OC(C)C(OC4OC(C)C(OC(=O)C(C)CC)C(OC(=O)C=Cc5ccccc5)C4O)C(OC4OC(C)C(O)C(O)C4O)C3OC(=O)CCC)C2O)OC2C(O1)OC(CO)C(O)C2O (stereo not shown) [Compound 2, Cairicoside II]
30.4 ± 3.9 | CCCCCCCC(=O)OC1C(OC2C(C)OC3OC4C(OC(CCCCC)CCCCCCCCCC(=O)OC3C2O)OC(CO)C(O)C4O)OC(C)C(OC2OC(C)C(OC(=O)C(C)CC)C(OC(=O)C=Cc3ccccc3)C2O)C1OC1OC(C)C(O)C(O)C1O (stereo not shown) [Compound 3, Cairicoside III]
